Measured values published in patent publication US10722516B2, “Use of landiolol hydrochloride in the long-term treatment of tachyarrhythmias” (AOP Orphan Pharmaceuticals AG, priority 2013, dated 2020).
“Also recorded” adds a separate entry of the source. Counter-ions that a name gives are not always drawn.

Legend:
healthy volunteers [1] = assay: 24 h long-term infusion study, AOP LDLL600 against esmolol: heart rate; assay type: in vivo, human; details: for heart rate: Table 1
Description: (§1) A single centre prospective, randomized, double blind, crossover, pharmacokinetic, safety and tolerability study to compare long-term infusion administration of AOP LDLL600 against esmolol in healthy volunteers was performed.
(§2) Landiolol hydrochloride lyophilized (LDLL600) comprises 600 mg landiolol hydrochloride, 600 mg mannitol, pH 6.5. The primary packing of LDLL600 is 50 ml vial, the reconstitution volume is 50 ml and the final product concentration is 12 mg/mL landiolol HCl.
(§3) 12 subjects were administered AOP LDLL600 or Esmolol (Brevibloc, 2500 mg/250 ml) in 1:1 ratio in double-blind, randomized, cross-over setting. PK, systemic cardiovascular and local tolerability and safety of the 24 h-long term infusions of three dose levels of both IMPs during each treatment period were assessed.
(§4) Landiolol was infused over 24 h in a dose of 10 μg/KG/min (2 hrs), followed by 20 μg/KG/min (2 hrs), followed by 40 μg/KG/min for 20 hrs.
(§5) Dosing algorithm was body weight divided by 20, 10 and 5 in ml/h giving 10, 20 and 40 μg/KG/min at a concentration of 12 mg/ml. No severe adverse drug reactions, mild local reactions, 1 severe local reaction (Esmolol High Dose).
(§6) Landiolol was infused over 24 h in a dose of 10, 20 and 40 μg/KG/min, i.e. 10 μg/KG/min landiolol were administered for 2 hrs, followed by 2 hrs administration of 20 μg/KG/min and further followed by 20 hrs administration of 40 μg/KG/min.
Post-infusion follow up measurements were performed immediately after 20 hrs administration study, i.e. 2, 4 min etc. after stop of landiolol administration.

healthy volunteers [2] = assay: 24 h long-term infusion study: local tolerability and safety; assay type: in vivo, human
Description: as §1, §2, §3, §4, §5, §6

[3] = LD infusion (landiolol 10, esmolol 50 μg/kg/min), 6 min
[4] = LD infusion (landiolol 10, esmolol 50 μg/kg/min), 8 min
[5] = LD infusion (landiolol 10, esmolol 50 μg/kg/min), 12 min
[6] = LD infusion (landiolol 10, esmolol 50 μg/kg/min), 16 min
[7] = LD infusion (landiolol 10, esmolol 50 μg/kg/min), 20 min
[8] = LD infusion (landiolol 10, esmolol 50 μg/kg/min), 30 min
[9] = LD infusion (landiolol 10, esmolol 50 μg/kg/min), 60 min
[10] = LD infusion (landiolol 10, esmolol 50 μg/kg/min), 90 min
[11] = LD infusion (landiolol 10, esmolol 50 μg/kg/min), 2 h
[12] = MD infusion (landiolol 20, esmolol 100 μg/kg/min, after 2 h LD), 2 min
[13] = MD infusion (landiolol 20, esmolol 100 μg/kg/min, after 2 h LD), 3 min
[14] = MD infusion (landiolol 20, esmolol 100 μg/kg/min, after 2 h LD), 4 min
[15] = MD infusion (landiolol 20, esmolol 100 μg/kg/min, after 2 h LD), 6 min
[16] = MD infusion (landiolol 20, esmolol 100 μg/kg/min, after 2 h LD), 8 min
[17] = MD infusion (landiolol 20, esmolol 100 μg/kg/min, after 2 h LD), 12 min
[18] = MD infusion (landiolol 20, esmolol 100 μg/kg/min, after 2 h LD), 16 min
[19] = MD infusion (landiolol 20, esmolol 100 μg/kg/min, after 2 h LD), 20 min
[20] = MD infusion (landiolol 20, esmolol 100 μg/kg/min, after 2 h LD), 30 min
[21] = MD infusion (landiolol 20, esmolol 100 μg/kg/min, after 2 h LD), 60 min
[22] = MD infusion (landiolol 20, esmolol 100 μg/kg/min, after 2 h LD), 90 min
[23] = MD infusion (landiolol 20, esmolol 100 μg/kg/min, after 2 h LD), 2 h
[24] = 24 h infusion, three dose levels

## CC1(C)OC[C@@H](COC(=O)CCc2ccc(OC[C@@H](O)CNCCNC(=O)N3CCOCC3)cc2)O1 [Landiolol, (−)-[(S)-2,2-dimethyl-1,3-dioxolan-4-yl]methyl 3-[4-[(S)-2-hydroxy-3-(2-morpholinocarbonylamino)ethylamino]propoxy]phenylpropionate monohydrochloride]
Healthy volunteers [1]; LD infusion (landiolol 10, esmolol 50 μg/kg/min), 4 min
  heart rate, Mean (SD): 64.6 (6.97) beats per minute
Healthy volunteers [1]; [3]
  change of heart rate from predose, Mean (SD): −1.7 (7.97) beats per minute
  heart rate, Mean (SD): 65.7 (8.78) beats per minute
Healthy volunteers [1]; [4]
  change of heart rate from predose, Mean (SD): −3.6 (9.07) beats per minute
  heart rate, Mean (SD): 63.8 (6.57) beats per minute
Healthy volunteers [1]; [5]
  change of heart rate from predose, Mean (SD): −4.7 (10.99) beats per minute
  heart rate, Mean (SD): 62.7 (7.71) beats per minute
Healthy volunteers [1]; [6]
  change of heart rate from predose, Mean (SD): −7.1 (5.32) beats per minute
  heart rate, Mean (SD): 60.3 (6.72) beats per minute
Healthy volunteers [1]; [7]
  change of heart rate from predose, Mean (SD): −7.3 (10.51) beats per minute
  heart rate, Mean (SD): 60.0 (6.05) beats per minute
Healthy volunteers [1]; [8]
  change of heart rate from predose, Mean (SD): −7.8 (12.55) beats per minute
  heart rate, Mean (SD): 59.5 (8.55) beats per minute
Healthy volunteers [1]; [9]
  change of heart rate from predose, Mean (SD): −9.6 (11.89) beats per minute
  heart rate, Mean (SD): 57.8 (8.05) beats per minute
Healthy volunteers [1]; [10]
  change of heart rate from predose, Mean (SD): −9.3 (11.33) beats per minute
  heart rate, Mean (SD): 58.1 (7.14) beats per minute
Healthy volunteers [1]; [11]
  change of heart rate from predose, Mean (SD): −11.2 (11.75) beats per minute
  heart rate, Mean (SD): 56.2 (5.89) beats per minute
Healthy volunteers [1]; MD Predose (end of 2 h LD)
  change of heart rate from predose, Mean (SD): −11.2 (11.75) beats per minute
  heart rate, Mean (SD): 56.2 (5.89) beats per minute
Healthy volunteers [1]; [12]
  change of heart rate from predose, Mean (SD): −11.1 (10.73) beats per minute
  heart rate, Mean (SD): 56.3 (6.48) beats per minute
Healthy volunteers [1]; [13]
  change of heart rate from predose, Mean (SD): −9.8 (7.90) beats per minute
  heart rate, Mean (SD): 57.6 (5.02) beats per minute
Healthy volunteers [1]; [14]
  change of heart rate from predose, Mean (SD): −10.9 (9.26) beats per minute
  heart rate, Mean (SD): 56.4 (6.87) beats per minute
Healthy volunteers [1]; [15]
  change of heart rate from predose, Mean (SD): −11.2 (11.10) beats per minute
  heart rate, Mean (SD): 56.2 (7.86) beats per minute
Healthy volunteers [1]; [16]
  change of heart rate from predose, Mean (SD): −9.7 (10.96) beats per minute
  heart rate, Mean (SD): 57.7 (7.24) beats per minute
Healthy volunteers [1]; [17]
  change of heart rate from predose, Mean (SD): −12.8 (10.17) beats per minute
  heart rate, Mean (SD): 54.5 (6.07) beats per minute
Healthy volunteers [1]; [18]
  change of heart rate from predose, Mean (SD): −10.4 (11.42) beats per minute
  heart rate, Mean (SD): 56.9 (6.88) beats per minute
Healthy volunteers [1]; [19]
  change of heart rate from predose, Mean (SD): −12.8 (10.52) beats per minute
  heart rate, Mean (SD): 54.5 (6.86) beats per minute
Healthy volunteers [1]; [20]
  change of heart rate from predose, Mean (SD): −9.0 (11.92) beats per minute
  heart rate, Mean (SD): 58.3 (8.53) beats per minute
Healthy volunteers [1]; [21]
  change of heart rate from predose, Mean (SD): −11.3 (9.86) beats per minute
  heart rate, Mean (SD): 56.0 (5.17) beats per minute
Healthy volunteers [1]; [22]
  change of heart rate from predose, Mean (SD): −10.2 (10.81) beats per minute
  heart rate, Mean (SD): 57.2 (6.79) beats per minute
Healthy volunteers [1]; [23]
  change of heart rate from predose, Mean (SD): −11.3 (9.41) beats per minute
  heart rate, Mean (SD): 56.1 (7.38) beats per minute
Healthy volunteers [1]; Predose (before first IMP administration)
  heart rate, Mean (SD): 67.3 (8.18) beats per minute
Healthy volunteers [1]; Control (before administration)
  heart rate: 67.8 beats per minute
Healthy volunteers [1]; high dose (landiolol 40, esmolol 200 μg/kg/min), time 720 min
  heart rate: 57.5 beats per minute
Healthy volunteers [1]; high dose (landiolol 40, esmolol 200 μg/kg/min), time 1200 min
  heart rate: 53.6 beats per minute
Healthy volunteers [1]; low dose (landiolol 10, esmolol 50 μg/kg/min), time 12 min
  heart rate: 62.7 beats per minute
Healthy volunteers [1]; low dose (landiolol 10, esmolol 50 μg/kg/min), time 16 min
  heart rate: 60.3 beats per minute
Healthy volunteers [1]; low dose (landiolol 10, esmolol 50 μg/kg/min), time 30 min
  heart rate: 59.5 beats per minute
Healthy volunteers [1]; low dose (landiolol 10, esmolol 50 μg/kg/min), time 60 min
  heart rate: 57.8 beats per minute
Healthy volunteers [1]; low dose (landiolol 10, esmolol 50 μg/kg/min), time 120 min
  heart rate: 56.2 beats per minute
Healthy volunteers [1]; medium dose (landiolol 20, esmolol 100 μg/kg/min), time 240 min
  heart rate: 56.1 beats per minute
Healthy volunteers [1]; time after administration 12 min (end at 1440 min)
  heart rate: 63.5 beats per minute
Healthy volunteers [1]; time after administration 16 min
  heart rate: 67 beats per minute
Healthy volunteers [1]; time after administration 30 min
  heart rate: 70 beats per minute
Healthy volunteers [1]; time after administration 60 min
  heart rate: 69.2 beats per minute
Healthy volunteers [1]; time after administration 120 min
  heart rate: 66.8 beats per minute
Healthy volunteers [1]; after termination of long term administration, listed as landiolol-hydrochloride, monohydrochloride
  overshoot effect on heart rate: avoiding any overshoot effect; also recorded: no significant overshoot effect occurs
Healthy volunteers [1]; long term administration
  tolerance effect: without showing any tolerance effects
Healthy volunteers [1]; long term administration, listed as landiolol-hydrochloride, monohydrochloride
  heart rate effect during administration: persistent reduction of heart rate; also recorded: significantly lower than the heart rate and/or blood pressure values achieved under esmolol long-term treatment
Healthy volunteers [2]; 24 h infusion
  local tolerability compared to Esmolol: clearly better
Healthy volunteers [2]; [24]
  local reactions (percent of subjects): 16.7%
  local reactions (subjects/total): 2/12
Healthy volunteers [2]; long term treatment
  local venous skin irritations or inflammatory reactions at the site of injection: did not bring about any blushing, erythema, pain, inflammation, induration, phlebitis and thrombosis
